In BindingDB's records for doi:10.1021/jm980294n (University of Utah, 1998):

What was measured:
[1] = Inhibition of Epidermal growth factor receptor mediated mitogenesis of NIH3T3 cells
[2] = Inhibition of insulin receptor mediated mitogenesis of NIH3T3 cells

Compound: COc1ccc(Cc2nc(NC3=NC(=O)N(C)C3=O)n(C)c2Cc2ccc(O)cc2)cc1 [4-(5-(4-hydroxybenzyl)-4-(4-methoxybenzyl)-1-methyl-1H-imidazol-2-ylamino)-1-methyl-1H-imidazole-2,5-dione]
- IC50 [1]: 11.3 µM
- IC50 [2]: 242 µM

Compound: COc1ccc(Cc2cn(Cc3ccc(OC)cc3)c(NC3=NC(=O)N(C)C3=O)n2)cc1 [5-[1,4-Bis-(4-methoxy-benzyl)-1H-imidazol-2-ylamino]-3-methyl-imidazole-2,4-dione]
- IC50 [1]: 36.9 µM
- IC50 [2]: 6.7 µM

Compound: COc1ccc(Cc2cn(Cc3ccc(O)cc3)c(NC3=NC(=O)N(C)C3=O)n2)cc1 [5-[1-(4-Hydroxy-benzyl)-4-(4-methoxy-benzyl)-1H-imidazol-2-ylamino]-3-methyl-imidazole-2,4-dione]
- IC50 [1]: 22.7 µM
- IC50 [2]: 9.8 µM
